Reference: ChEMBL document CHEMBL4480381, “Origin and bioactivities of thiosulfinated FK228” (Medchemcomm, 2019)

Target: Histone deacetylase 4 (Homo sapiens, UniProt P56524)
Assay: Inhibition of human recombinant C-terminal GST-tagged HDAC4 (101 to 1084 residues) expressed in baculovirus infected Sf9 insect cells after 1 hr by HDAC-Glo1/2 luminescent assay

Sequence of Histone deacetylase 4 (P56524 whole entry, the tested form may be a part): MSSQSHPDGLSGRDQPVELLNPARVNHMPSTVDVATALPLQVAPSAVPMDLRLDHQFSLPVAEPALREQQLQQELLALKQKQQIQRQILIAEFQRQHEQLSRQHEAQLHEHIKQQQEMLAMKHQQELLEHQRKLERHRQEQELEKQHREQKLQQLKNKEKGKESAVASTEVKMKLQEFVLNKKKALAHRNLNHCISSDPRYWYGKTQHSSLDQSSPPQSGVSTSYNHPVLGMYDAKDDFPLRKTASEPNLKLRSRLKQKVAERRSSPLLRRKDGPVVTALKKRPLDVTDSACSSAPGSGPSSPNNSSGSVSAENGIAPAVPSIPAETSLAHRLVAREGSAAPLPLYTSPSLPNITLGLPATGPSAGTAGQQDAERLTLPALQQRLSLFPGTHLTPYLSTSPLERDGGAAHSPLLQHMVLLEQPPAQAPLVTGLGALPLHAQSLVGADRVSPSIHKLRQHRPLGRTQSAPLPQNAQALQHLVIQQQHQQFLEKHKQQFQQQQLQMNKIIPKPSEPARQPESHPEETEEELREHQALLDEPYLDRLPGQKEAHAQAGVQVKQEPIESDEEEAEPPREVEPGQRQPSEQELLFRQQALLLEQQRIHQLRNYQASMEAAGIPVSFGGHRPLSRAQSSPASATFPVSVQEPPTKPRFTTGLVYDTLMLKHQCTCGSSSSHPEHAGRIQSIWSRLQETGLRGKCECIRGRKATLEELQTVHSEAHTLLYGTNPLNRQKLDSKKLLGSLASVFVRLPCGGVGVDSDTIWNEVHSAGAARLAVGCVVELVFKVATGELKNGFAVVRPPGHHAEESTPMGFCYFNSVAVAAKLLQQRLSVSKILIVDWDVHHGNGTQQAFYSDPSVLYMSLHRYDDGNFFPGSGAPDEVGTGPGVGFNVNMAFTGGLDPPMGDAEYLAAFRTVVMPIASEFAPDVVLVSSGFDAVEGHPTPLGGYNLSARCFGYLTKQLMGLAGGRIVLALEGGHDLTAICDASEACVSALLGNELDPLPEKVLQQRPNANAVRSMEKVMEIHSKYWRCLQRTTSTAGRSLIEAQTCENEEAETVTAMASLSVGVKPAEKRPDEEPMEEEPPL

IC50: 4.46 µM
Compound: C/C=C1\NC(=O)[C@H]2CSSCC/C=C/[C@H](CC(=O)N[C@H](C(C)C)C(=O)N2)OC(=O)[C@H](C(C)C)NC1=O [ROMIDEPSIN]
